Publication PMC10333285, “Structural basis of ligand activation and inhibition in a mammalian TRPV4 ion channel” (Cell Discovery, 2023)

Legend:
TRPV4 (mTRPV4) [1] = target: TRPV4 (mTRPV4) (Mus musculus, UniProt Q9EPK8, D682A); experiment: patch-clamp inhibition of GSK101-activated mutant channel; assay type: cell-based
TRPV4 (mTRPV4) [2] = target: TRPV4 (mTRPV4) (Mus musculus, UniProt Q9EPK8); experiment: cryo-EM structure with GSK101 also bound ([…] Å); patch-clamp inhibition IC50; assay type: cell-based
Chain of TRPV4 (mTRPV4) (Mus musculus, UniProt Q9EPK8) (Q9EPK8 whole entry): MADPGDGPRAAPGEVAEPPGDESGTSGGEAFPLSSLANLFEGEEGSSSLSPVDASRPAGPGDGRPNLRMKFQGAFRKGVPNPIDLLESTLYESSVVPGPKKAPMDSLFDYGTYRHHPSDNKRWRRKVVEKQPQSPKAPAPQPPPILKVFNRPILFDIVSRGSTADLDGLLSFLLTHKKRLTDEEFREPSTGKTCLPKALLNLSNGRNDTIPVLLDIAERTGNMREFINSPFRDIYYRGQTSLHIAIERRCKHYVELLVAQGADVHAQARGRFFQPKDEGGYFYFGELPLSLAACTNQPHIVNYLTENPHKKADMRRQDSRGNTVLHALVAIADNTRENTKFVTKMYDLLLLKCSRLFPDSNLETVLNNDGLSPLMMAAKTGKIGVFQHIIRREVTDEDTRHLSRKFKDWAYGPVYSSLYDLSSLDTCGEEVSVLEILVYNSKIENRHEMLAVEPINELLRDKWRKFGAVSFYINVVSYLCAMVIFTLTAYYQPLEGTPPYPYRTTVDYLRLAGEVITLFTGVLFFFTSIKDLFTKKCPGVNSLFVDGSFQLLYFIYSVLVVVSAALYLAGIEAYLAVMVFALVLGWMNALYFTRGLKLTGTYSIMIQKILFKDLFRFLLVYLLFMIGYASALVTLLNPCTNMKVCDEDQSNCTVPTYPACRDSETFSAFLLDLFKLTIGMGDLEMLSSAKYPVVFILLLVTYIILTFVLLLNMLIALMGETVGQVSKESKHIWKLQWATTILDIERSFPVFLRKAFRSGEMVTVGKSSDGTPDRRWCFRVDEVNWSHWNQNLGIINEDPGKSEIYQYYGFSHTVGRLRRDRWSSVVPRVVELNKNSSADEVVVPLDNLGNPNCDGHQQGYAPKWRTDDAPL

Chain of TRPV4 (mTRPV4) (Mus musculus, UniProt Q9EPK8, D682A) (Q9EPK8 whole entry D682A): as the sequence (Q9EPK8 whole entry) above, with D682A counted along it

Cl.Cl.Cl.Cl.Cl.Cl.N.N.N.N.N.N.N.N.N.N.N.N.N.N.[O-2].[O-2].[Ru+3].[Ru+3].[Ru+4] [ruthenium red]
IC50 (TRPV4 (mTRPV4) [1]): 15.6 ± 3.2 µM
IC50 (TRPV4 (mTRPV4) [2]): 0.3 ± 0.1 µM
